The text below walks through data of US20250214942A1, “INHIBITORS OF RECEPTOR INTERACTING PROTEIN KINASE I FOR THE TREATMENT OF DISEASE” (Board of Regents, The University of Texas System, priority 2019, published 2025).

Test [1] concerns human monocytic cell line U937. The test is described as follows: Human U937 cellular necroptosis assay (TNFalpha + z-VAD-FMK, Cell Titer-Glo viability). It counts as cell-based. The note with it: U937 cells, 25 ng/mL human TNFalpha + 25 μM z-VAD-FMK, read-out: hU937 Avg IC50. Put shortly:
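Readout is CellTiter-Glo 2.0 luminescence after 22 h at 37° C with compound, in cells triggered by human TNFalpha (25 ng/mL) and z-VAD-FMK (25 μM) in phenol red-free RPMI/10% FBS. Values are run-averaged IC50s from a four-parameter logistic curve.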
(In general: Cellular ATP, detected with luciferase, serves as a proxy for viable cell number.)

In another test the target is RIPK1 (Homo sapiens (Human), UniProt Q13546). The experiment in a line: ADP-Glo kinase assay (RIPK1 activity, conversion of ATP to ADP). To be noted: for IC50: 5 nM RIPK1, 50 μM ATP, 6 h reaction, read-out: RIPK1 Enzyme Avg IC50; for observed potency relative to the other enantiomer: enantiomers separated by SFC, assay not named. It counts as biochemical. Put shortly:
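RIPK1 (5 nM final) was preincubated 10 min at rt with 1:3-diluted compounds in HEPES pH 7.5/MgCl2/DTT/BSA/CHAPS buffer. ATP (50 μM final) was then added for 6 h, and ADP formed was read by ADP-Glo luminescence. IC50 values came from four-parameter logistic fitting.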

Like-named read-outs stand apart in the source and are kept apart here.

Chain of RIPK1 (Q13546 1-327): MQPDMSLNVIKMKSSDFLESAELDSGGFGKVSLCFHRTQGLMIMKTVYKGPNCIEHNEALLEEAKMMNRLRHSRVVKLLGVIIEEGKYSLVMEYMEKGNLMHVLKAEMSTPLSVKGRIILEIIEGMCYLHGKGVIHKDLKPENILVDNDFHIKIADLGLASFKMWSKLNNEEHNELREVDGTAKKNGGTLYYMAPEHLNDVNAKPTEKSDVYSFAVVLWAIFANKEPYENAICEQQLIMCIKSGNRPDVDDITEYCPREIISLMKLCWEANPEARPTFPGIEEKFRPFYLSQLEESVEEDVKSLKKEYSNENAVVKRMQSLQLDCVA

A word on the IC50: it is the midpoint of a concentration-inhibition curve. Regarding `N#Cc1cncc(C2CC=NN2C(=O)C23CC(Cn4cc(C#N)cn4)(C2)C3)c1` (stereo not drawn) [Example 168, 5-(1-(3-((4-cyano-1H-pyrazol-1-yl)methyl)-bicyclo[1.1.1]pentane-1-carbonyl)-4,5-dihydro-1H-pyrazol-5-yl)nicotinonitrile], the IC50 in test [1] (Homo sapiens, U-937, 22 h) is 6190 nM; at RIPK1, 865 nM.
The like results for `Cc1cncc(C2CC=NN2C(=O)C23CC(Cn4cc(C#N)cn4)(C2)C3)n1` (stereo not drawn) [Example 169, 1-((3-(5-(6-methylpyrazin-2-yl)-4,5-dihydro-1H-pyrazole-1-carbonyl)bicyclo[1.1.1]-pentan-1-yl)methyl)-1H-pyrazole-4-carbonitrile] were, in that order, 3310 nM and 343 nM.
Consider `Cc1csc(C2CC=NN2C(=O)C23CC(Cn4cc(C#N)cn4)(C2)C3)n1` (stereo not drawn) [Example 170, 1-((3-(5-(4-methylthiazol-2-yl)-4,5-dihydro-1H-pyrazole-1-carbonyl)bicyclo[1.1.1]-pentan-1-yl)methyl)-1H-pyrazole-4-carbonitrile], for which the IC50 in test [1] (Homo sapiens, U-937, 22 h) worked out at 9890 nM; on RIPK1 it was 4670 nM.
The like results for `Cc1ccc(C2CC=NN2C(=O)C23CC(Cn4cc(C#N)cn4)(C2)C3)nc1` (stereo not drawn) [Example 171, 1-((3-(5-(5-methylpyridin-2-yl)-4,5-dihydro-1H-pyrazole-1-carbonyl)bicyclo[1.1.1]-pentan-1-yl)methyl)-1H-pyrazole-4-carbonitiile] were, in that order, 3700 nM and 670 nM.
The like results for `CC1CC(c2cccc(F)c2)N(C(=O)C23CC(Cn4cc(C#N)cn4)(C2)C3)C1` (stereo not drawn) [Example 172, 1-((3-(2-(3-fluorophenyl)-4-methylpyrrolidine-1-carbonyl)bicyclo[1.1.1]-pentan-1-yl)methyl)-1H-pyrazole-4-carbonitrile] were, in that order, over 10000 nM and 4350 nM.
`N#Cc1cncc(C2CC=NN2C(=O)C23CC(Cn4ncc5cc(C#N)ccc54)(C2)C3)c1` (stereo not drawn) [Example 173, 1-((3-(5-(5-cyanopyridin-3-yl)-4,5-dihydro-1H-pyrazole-1-carbonyl)bicyclo[1.1.1]-pentan-1-yl)methyl)-1H-indazole-5-carbonitrile]: the IC50 in test [1] (Homo sapiens, U-937, 22 h) amounted to 53 nM; on RIPK1 it was 9.1 nM.
For `Cc1ccc(C2CC=NN2C(=O)C23CC(Cn4ncc5cc(C#N)ccc54)(C2)C3)nc1` (stereo not drawn) [Example 174, 1-((3-(5-(5-methylpyridin-2-yl)-4,5-dihydro-1H-pyrazole-1-carbonyl)bicyclo[1.1.1]-pentan-1-yl)methyl)-1H-indazole-5-carbonitrile] the same measures were 63 nM and 48 nM.
For `N#Cc1cccc(C2CC=NN2C(=O)C23CC(Cn4ncc5cc(C#N)ccc54)(C2)C3)c1` (stereo not drawn) [Example 175, 1-((3-(5-(3-cyanophenyl)-4,5-dihydro-1H-pyrazole-1-carbonyl)bicyclo[1.1.1]-pentan-1-yl)methyl)-1H-indazole-5-carbonitrile] the same measures were 47 nM and 16 nM.
Take `N#Cc1ccc2c(cnn2CC23CC(C(=O)N4CC(F)CC4c4cccc(F)c4)(C2)C3)c1` (stereo not drawn) [Example 176, 1-((3-(4-fluoro-2-(3-fluoro-phenyl)pyrrolidine-1-carbonyl)bicyclo[1.1.1]-pentan-1-yl)methyl)-1H-indazole-5-carbonitrile]: the IC50 in test [1] (Homo sapiens, U-937, 22 h) was 87 nM; at RIPK1 it was 19 nM.
With `N#Cc1ccc2c(cnn2CC23CC(C(=O)N4CCC4c4ccccc4)(C2)C3)c1` (stereo not drawn) [Example 177, 1-((3-(2-phenylazetidine-1-carbonyl)bicyclo[1.1.1]-pentan-1-yl)methyl)-1H-indazole-5-carbonitrile], the IC50 in test [1] (Homo sapiens, U-937, 22 h) came out at 536 nM; at RIPK1 it was 54 nM.
The like results for `N#Cc1ncn(CC23CC(C(=O)N4N=CCC4c4cc(F)cc(F)c4)(C2)C3)n1` (stereo not drawn) [Example 178, 1-((3-(5-(3,5-difluorophenyl)-4.5-dihydro-1H-pyrazole-1-carbonyl)bicyclo[1.1.1]-pentan-1-yl)methyl)-1H-1,2,4-triazole-3-carbonitrile] were, in that order, 228 nM and 103 nM.
Take `N#Cc1cnc2ncn(CC34CC(C(=O)N5N=CCC5c5cc(F)cc(F)c5)(C3)C4)c2c1` (stereo not drawn) [Example 184, 1-((3-(5-(3,5-difluorophenyl)-4,5-dihydro-1H-pyrazole-1-carbonyl)bicyclo[1.1.1]-pentan-1-yl)methyl)-1H-imidazo[4,5-b]pyridine-6-carbonitrile or 3-((3-(5-(3,5-difluorophenyl)-4,5-dihydro-1H-pyrazole-1-carbonyl)bicyclo[1.1.1]pentan-1-yl)methyl)-3H-imidazo[4,5-b]pyridine-6-carbonitrile]: the 50% inhibitory concentration (IC50) in test [1] (22 h) was 1240 nM; at RIPK1, 136 nM.
Take `O=C(N1N=CCC1c1cc(F)cc(F)c1)C12CC(Cn3cnc4ncccc43)(C1)C2` (stereo not drawn) [Example 193, (3-((1H-imidazo[4,5-b]-pyridin-1-yl)methyl)-bicyclo[1.1.1]pentan-1-yl)(5-(3,5-difluorophenyl)-4,5-dihydro-1H-pyrazol-1-yl)methanone and (3-((3H-imidazol[4,5-b]pyridin-3-yl)methyl)-bicyclo[1.1.1]pentan-1-yl)(5-(3,5-difluorophenyl)-4,5-dihydro-1H-pyrazol-1-yl)methanone]: the concentration for half-maximal inhibition (IC50) in test [1] (22 h) amounted to 1390 nM; on RIPK1 it was 292 nM.
Consider `Cc1cc(F)c([C@H]2CC=NN2C(=O)C23CC(COc4cnc(C#N)cn4)(C2)C3)cc1F` [Example 196, (R)-5-((3-(5-(2,5-difluoro-4-methylphenyl)-4,5-dihydro-1H-pyrazole-1-carbonyl)bicyclo[1.1.1]pentan-1-yl)methoxy)pyrazine-2-carbonitrile], for which the IC50 in test [1] (Homo sapiens, U-937, 22 h) stood at 631 nM. For the same molecule, the “observed potency relative to the other enantiomer” value on RIPK1 is listed as “less potent isomer”.
In the case of `Cc1cc(F)c([C@@H]2CC=NN2C(=O)C23CC(COc4cnc(C#N)cn4)(C2)C3)cc1F` [Example 197, (S)-5-((3-(5-(2,5-difluoro-4-methylphenyl)-4,5-dihydro-1H-pyrazole-1-carbonyl)bicyclo[1.1.1]pentan-1-yl)methoxy)pyrazine-2-carbonitrile], the IC50 in test [1] (Homo sapiens, U-937, 22 h) worked out at 0.77 nM. For the same molecule, the “observed potency relative to the other enantiomer” value at RIPK1 is listed as “more potent isomer”.
Consider `N#Cc1cnc(OCC23CC(C(=O)N4N=CCC4c4cc(F)cc(F)c4)(C2)C3)cn1` (stereo not drawn) [Example 199, 5-((3-(5-(3,5-difluorophenyl)-4,5-dihydro-1H-pyrazole-1-carbonyl)bicyclo[1.1.1]pentan-1-yl)methoxy)pyrazine-2-carbonitrile], for which the IC50 in test [1] (Homo sapiens, U-937, 22 h) was determined as 9.3 nM; at RIPK1 it was 8.3 nM.
As for `N#Cc1cnc(OCC23CC(C(=O)N4N=CC[C@@H]4c4cc(F)cc(F)c4)(C2)C3)cn1` [Example 200, (R)-5-((3-(5-(3,5-difluorophenyl)-4,5-dihydro-1H-pyrazole-1-carbonyl)bicyclo[1.1.1]pentan-1-yl)methoxy)pyrazine-2-carbonitrile], the IC50 in test [1] (Homo sapiens, U-937, 22 h) was 8560 nM. Moreover, the “observed potency relative to the other enantiomer” value at RIPK1 is listed as “less potent isomer”.
For the molecule `N#Cc1cnc(OCC23CC(C(=O)N4N=CC[C@H]4c4cc(F)cc(F)c4)(C2)C3)cn1` [Example 201, (S)-5-((3-(5-(3,5-difluorophenyl)-4,5-dihydro-1H-pyrazole-1-carbonyl)bicyclo[1.1.1]pentan-1-yl)methoxy)pyrazine-2-carbonitrile], the half-maximal inhibitory concentration (IC50) in test [1] (Homo sapiens, U-937, 22 h) was 7.1 nM. At RIPK1, the “observed potency relative to the other enantiomer” value is given as “more potent isomer”.
